Measured values as given in paper PMC4549706, “Rational Design of Highly Potent and Slow-Binding Cytochrome bc1 Inhibitor as Fungicide by Computational Substitution Optimization” (Scientific Reports, 2015).

Molecular target: T1, porcine succinate-cytochrome c reductase (SCR, the mixture of complex II and bc1) (Sus scrofa, UniProt P24964)
T1 construct: T h e S C R f r o m p o r c i n e h e a r t; from tissue; host or cells: porcine heart
Test: SCR activity, succinate-cytochrome c system (Assay 1)
Type: biochemical
Settings: for ligand efficiency (LE): from Ki against bc1 complex; for binding behaviour to bc1 complex (slow or fast binding): progress curves of SCR-catalysed reaction
Method: Figure 4 Slow-binding inhibition mechanism. (A,B) Effect of various concentrations of cytochrome c and compound 18 on the inhibition of SCR activity. Each reaction mixture contains 100 mM, pH 7.4), EDTA (0.3 mM), succinate (20 mM), SCR (0.1 nM), and indicated amounts of cytochrome c and compound 18. The assays were performed in the presence of (A) 18 (35 nM) and a specified amount of cytochrome c (1, 4 μM; 2, 8 μM; 3, 20 μM; and 4, 48 μM) or (B) cytochrome c (60 μM) and various concentrations of compound 18 (1, 0 nM; 2, 15 nM; 3, 20 nM; 4, 30 nM; 5, 40 nM; and 6, 50 nM). Experimental data are shown as coloured dots and theoretical values are represented as black solid lines. Insets: plots of Kobs against concentration of (A) cytochrome c and (B) compound 18. […] Each reaction mixture contains 100 mM, pH 6.5), EDTA (2 mM), lauryl maltoside (750 μM), oxidised cytochrome c (100 μM), SCR (0.05 nM), and indicated amounts of DBH2 and compound 18. Two representative sets of inhibitory assays were performed in the presence of (C) DBH2 (20 μM) and a specified amount of compound 18 (1, 20 nM; 2, 40 nM; 3, 60 nM; 4, 80 nM), or (D) DBH2 (120 μM) and a specified amount of compound 18 (1, 40 nM; 2, 80 nM; 3, 120 nM; 4, 180 nM). Insets: plots of Kobs against concentration of compound 18. (E) Plot of the apparent rate constant A against concentration of DBH2. Inset: Plot of 1/A against concentration of DBH2. (F) Plot of the apparent rate constant B against concentration of DBH2.
The porcine succinate-cytochrome c reductase (SCR, the mixture of complex II and bc1) was prepared essentially according to the previously reported method. The enzymatic activities of SCR, complex II, and bc1 complex were analyzed in respective reaction mixtures as reported previously. Kinetic analyses for the inhibition mechanism were performed as previously described. […]
inhibitory kinetics study of bc1 inhibitors 8. […]
synthesized compounds against bc1 complex were examined by SCR. As previously described 9, the combined activity of SCR can be determined by using succinate and cytochrome c as substrates (Assay 1). We also measured the activity of complex II by using succinate and 2,6-dichloroindophenol (DCIP) as substrates (Assay 2), or the activity of bc1 complex by using decylubiquinol (DBH2) and cytochrome c as substrates (Assay 3). […]
redA 10, was used to represent the enzyme concentration. The three redox reactions used in this study were summarized as follows.
Assay 1: succinate + cytochrome c3+ S C R fumarate + cytochrome c2+
Assay 2: succinate + DCIP complex II fumarate + DCIPH 2
Assay 3: DBH 2 + cytochrome c3+ bc1 complex DB + cytochrome c2+
All assays were performed at 23 °C. The enzymatic activity of SCR (Assay 1) was carried out in 1.8 mL of reaction mixture containing 100 mM PBS (pH 7.4), 0.3 mM EDTA, and indicated concentrations of succinate and oxidized cytochrome c (Sigma-Aldrich). The activity of succinate-ubiquinone reductase (complex II, Assay 2) was determined in essentially the same reaction mixture, except for the replacement of cytochrome c with DCIP (Alfa Aesar). […] DBH 2 was prepared through reduction of decylubiquinone by dithionite (Sigma-Aldrich) as previously described 11,12. The nonionic detergent LM was used to decrease the interfering non-enzymatic activity though it slightly […]

T1 sequence (P24964 whole entry, one chain of several): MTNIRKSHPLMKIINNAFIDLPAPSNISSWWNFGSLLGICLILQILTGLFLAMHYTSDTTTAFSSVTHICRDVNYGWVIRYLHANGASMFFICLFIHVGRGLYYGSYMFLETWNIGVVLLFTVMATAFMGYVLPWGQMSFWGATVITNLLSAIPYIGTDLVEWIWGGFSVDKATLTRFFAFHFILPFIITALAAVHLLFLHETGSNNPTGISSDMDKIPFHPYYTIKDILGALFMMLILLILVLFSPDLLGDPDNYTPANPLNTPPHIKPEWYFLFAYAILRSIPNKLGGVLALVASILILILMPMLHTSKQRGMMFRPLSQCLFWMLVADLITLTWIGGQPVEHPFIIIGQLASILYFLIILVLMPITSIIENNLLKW

Row | SMILES | ligand efficiency (LE) | binding behaviour to bc1 complex (slow or fast binding) | Ki [nM] | inhibition type with respect to cytochrome c (Assay 1, varied cytochrome c) | ∆∆Gexp (Table S1, experimental binding free energy change vs compound 1) [kcal/mol] | ΔΔGexp (experimental binding free energy change relative to compound 1) [kcal/mol] | kon (read-out: association rate constant k+0) [M⁻¹ s⁻¹] | koff (read-out: dissociation rate constant k−0) [s⁻¹]
1 | CO/C=C(/C(=O)OC)c1ccccc1Oc1cc(Oc2ccccc2C#N)ncn1 [AZ, Azoxystrobin, reference compound] | 0.3 kcal mol^−1 per non-H atom | fast-binding | – | – | – | – | – | –
2 | COC=C(C(=O)OC)c1ccccc1CSc1nc2cc(OC)ccc2s1 [Compound 18] | 0.45 kcal mol^−1 per non-H atom | slow-binding | 4.1 ± 0.5 | non-competitive | -1.20 | -1.20 | 660000 ± 10000 | 0.00271 ± 0.00031
